{"source": "ChEMBL document CHEMBL1130537", "about": "“Asymmetric synthesis of the sulfoxide metabolite of ON-579 by the kagan protocol” (Bioorg Med Chem Lett, 1997)", "species_on_record": "Oryctolagus cuniculus", "experiment": "Inhibitory activity against U-46,619-induced rabbit platelet aggregation was determined", "assay_type": "functional", "data": [{"smiles": "O=C(O)COc1c(F)cc([S+]([O-])CCNS(=O)(=O)c2ccc(Cl)cc2)cc1F", "note": "(racemic; form 2)", "values": [{"measurement": "IC50", "result": 18.9, "unit": "µM"}]}, {"smiles": "O=C(O)COc1c(F)cc(SCCNS(=O)(=O)c2ccc(Cl)cc2)cc1F", "values": [{"measurement": "IC50", "setting": "Oryctolagus cuniculus", "result": 0.34, "unit": "µM"}]}, {"smiles": "O=C(O)COc1c(F)cc([S+]([O-])CCNS(=O)(=O)c2ccc(Cl)cc2)cc1F", "note": "(racemic; form 1)", "values": [{"measurement": "IC50", "result": "≥ 1", "unit": "µM"}]}, {"smiles": "O=C(O)COc1c(F)cc([S+]([O-])CCNS(=O)(=O)c2ccc(Cl)cc2)cc1F", "note": "(stereo in doubt; (-/-)4b)", "values": [{"measurement": "IC50", "result": 13.3, "unit": "µM"}]}]}
